Test results taken from US20030022158A1, “Peptides from the TT virus sequence and monospecific antibodies binding to the TT virus” (priority 1999, published 2003).

Experiments:
[1] = system: human antibodies in human serum samples; test: EIA reactivities of three human serum samples with deletion and alanine substitution analogues of SEQ ID NO: 1 (Table 6); type: binding; details: positive = more than 50% of the reactivity of the original peptide
Protocol: (§1) The EIAs used to identify which peptides interacted with human sera followed protocols known in the art. (See Zhang et al., J Gen Virol, 78:2735-2746 (1997), herein expressly incorporated by reference in its entirety). Briefly, microplates (Nunc, Denmark) were coated for 48 hours with synthetic peptides at a concentration of 10 μg/ml in 0.05M sodium carbonate buffer pH 9.6. After blocking for 2 hours at room temperature with phosphate buffered saline containing 1% bovine serum albumin, 2% goat serum and 0.05% Tween 20 (dilution buffer) the plates were incubated with human sera diluted 1:100 in dilution buffer. Bound human IgG was detected by incubation with anti-human IgG antibodies conjugated to alkaline phosphatase (Sigma Chemicals, St. Louis, Mo.). The plates were developed by the addition of […] (Sigma) and the optical densities were determined at 405 nm.
The reactivity to the TATTTTYAYPGTNRPPV (SEQ ID NO: 1) peptide was further characterized by mapping the reactivity of deletion and substitution peptide analogues.

[2] = system: human IgG antibodies in human serum samples; test: EIA of human antibody reactivities to overlapping synthetic peptides of TTV ORF1 and ORF2 (Tables 2 and 3); type: binding; details: for optical density (OD) at 405 nm: serum diluted 1:100, OD over 0.500 considered positive; for human reactivity to peptide (reactive peptides within ORF1): tested human sera; for optical density (OD) at 405 nm, EIA reactivity of human serum sample 1: serum sample 1, negative for TTV DNA by PCR; for optical density (OD) at 405 nm, EIA reactivity of human serum sample 1 / optical density (OD) at 405 nm, EIA reactivity of human serum sample 2 / optical density (OD) at 405 nm, EIA reactivity of human serum sample 3 / optical density (OD) at 405 nm, EIA reactivity of human serum sample 4 / optical density (OD) at 405 nm, EIA reactivity of human serum sample 5 / optical density (OD) at 405 nm, EIA reactivity of human serum sample 6 / optical density (OD) at 405 nm, EIA reactivity of human serum sample 7 / optical density (OD) at 405 nm, EIA reactivity of human serum sample 9 / optical density (OD) at 405 nm, EIA reactivity of human serum sample 11 / optical density (OD) at 405 nm, EIA reactivity of human serum sample 18 / optical density (OD) at 405 nm, EIA reactivity of human serum sample 36 / optical density (OD) at 405 nm, EIA reactivity of human serum sample 48 / optical density (OD) at 405 nm, EIA reactivity of human serum sample 98 / optical density (OD) at 405 nm, EIA reactivity of human serum sample 110 / optical density (OD) at 405 nm, EIA reactivity of human serum sample 155 / optical density (OD) at 405 nm, EIA reactivity of human serum sample 157: serum 1:100, peptide coated 10 μg/ml, OD over 0.500 positive; for optical density (OD) at 405 nm, EIA reactivity of human serum sample 2: serum sample 2, negative for TTV DNA by PCR; for optical density (OD) at 405 nm, EIA reactivity of human serum sample 3: serum sample 3, negative for TTV DNA by PCR; for optical density (OD) at 405 nm, EIA reactivity of human serum sample 4: serum sample 4, negative for TTV DNA by PCR; for optical density (OD) at 405 nm, EIA reactivity of human serum sample 5: serum sample 5, negative for TTV DNA by PCR; for optical density (OD) at 405 nm, EIA reactivity of human serum sample 6: serum sample 6, negative for TTV DNA by PCR; for optical density (OD) at 405 nm, EIA reactivity of human serum sample 7: serum sample 7, negative for TTV DNA by PCR; for optical density (OD) at 405 nm, EIA reactivity of human serum sample 9: serum sample 9, positive for TTV DNA by PCR; for optical density (OD) at 405 nm, EIA reactivity of human serum sample 11: serum sample 11, negative for TTV DNA by PCR; for optical density (OD) at 405 nm, EIA reactivity of human serum sample 18: serum sample 18, positive for TTV DNA by PCR; for optical density (OD) at 405 nm, EIA reactivity of human serum sample 36: serum sample 36, positive for TTV DNA by PCR; for optical density (OD) at 405 nm, EIA reactivity of human serum sample 48: serum sample 48, positive for TTV DNA by PCR; for optical density (OD) at 405 nm, EIA reactivity of human serum sample 98: serum sample 98, positive for TTV DNA by PCR; for optical density (OD) at 405 nm, EIA reactivity of human serum sample 110: serum sample 110, positive for TTV DNA by PCR; for optical density (OD) at 405 nm, EIA reactivity of human serum sample 155: serum sample 155, positive for TTV DNA by PCR; for optical density (OD) at 405 nm, EIA reactivity of human serum sample 157: serum sample 157, positive for TTV DNA by PCR
Text: Overlapping peptides (18 amino acids in length containing an 8 amino acid overlap) corresponding to regions of the ORFI and ORF2 of TTV (TABLE 1; Genebank accession no AB008394) were produced by a multiple peptide synthesizer (Syro, Syntex, Germany) using standard Fmoc chemistry (Sallberg et al., Immunology Letters, 30:59 68 (1991), herein expressly incorporated by reference in its entirety).
as §1

[3] = human serum sample 1, negative for TTV DNA by PCR
[4] = human serum sample 2, negative for TTV DNA by PCR
[5] = human serum sample 3, negative for TTV DNA by PCR
[6] = human serum sample 4, negative for TTV DNA by PCR
[7] = human serum sample 5, negative for TTV DNA by PCR
[8] = human serum sample 6, negative for TTV DNA by PCR
[9] = human serum sample 7, negative for TTV DNA by PCR
[10] = human serum sample 9, positive for TTV DNA by PCR
[11] = human serum sample 11, negative for TTV DNA by PCR
[12] = human serum sample 18, positive for TTV DNA by PCR
[13] = human serum sample 36, positive for TTV DNA by PCR
[14] = human serum sample 48, positive for TTV DNA by PCR
[15] = human serum sample 98, positive for TTV DNA by PCR
[16] = human serum sample 110, positive for TTV DNA by PCR
[17] = human serum sample 155, positive for TTV DNA by PCR
[18] = human serum sample 157, positive for TTV DNA by PCR

Sequence	optical density (OD) at 405 nm [2, 3] [OD]	optical density (OD) at 405 nm [2, 4] [OD]	optical density (OD) at 405 nm [2, 5] [OD]	optical density (OD) at 405 nm [2, 6] [OD]	optical density (OD) at 405 nm [2, 7] [OD]	optical density (OD) at 405 nm [2, 8] [OD]	optical density (OD) at 405 nm [2, 9] [OD]	optical density (OD) at 405 nm [2, 10] [OD]	optical density (OD) at 405 nm [2, 11] [OD]	optical density (OD) at 405 nm [2, 12] [OD]	optical density (OD) at 405 nm [2, 13] [OD]	optical density (OD) at 405 nm [2, 14] [OD]	optical density (OD) at 405 nm [2, 15] [OD]	optical density (OD) at 405 nm [2, 16] [OD]	optical density (OD) at 405 nm [2, 17] [OD]	optical density (OD) at 405 nm [2, 18] [OD]	human reactivity to peptide (reactive peptides within ORF1) ([2]; EIA)	optical density (OD) at 405 nm, EIA reactivity of human serum sample 1 [2] [OD]	optical density (OD) at 405 nm, EIA reactivity of human serum sample 2 [2] [OD]	optical density (OD) at 405 nm, EIA reactivity of human serum sample 3 [2] [OD]	other results
GLYSSIWLSPGRSYFET (Peptide Immunogen) [compound 42, overlapping synthetic peptide of TTV ORF1]	0.08	0.11	0.09	0.10	0.17	0.23	0.11	0.27	0.19	0.12	0.10	0.09	0.16	0.42	0.35	1.24	Reactive				OD at 405 nm, reactivity of human serum sample P4 ([1]; human serum sample P4): 0.135 OD; OD at 405 nm, reactivity of human serum sample P7 ([1]; human serum sample P7): 0.242 OD; OD at 405 nm, reactivity of human serum sample P36 ([1]; human serum sample P36): 0.076 OD
EDGGAGGDADHGGAAGGP (Peptide Immunogen) [ORF2 peptide 19, overlapping synthetic peptide of TTV ORF2]																					number of tested human sera reactive with the peptide ([2]; ORF2 peptide, EIA): Two of the tested human sera were reactive
KINTMPPFLDTELTAPS (Peptide Immunogen) [compound 18, overlapping synthetic peptide of TTV ORF1]	0.09	0.09	0.15	0.29	0.07	0.13	0.62	0.08	0.28	0.07	0.13	0.12	0.04	0.08	0.19	0.18	Reactive	0.00	0.00	0.00	optical density (OD) at 405 nm, EIA reactivity of human serum sample 4 [2]: 0.00 OD; optical density (OD) at 405 nm, EIA reactivity of human serum sample 5 [2]: 0.00 OD; optical density (OD) at 405 nm, EIA reactivity of human serum sample 6 [2]: 0.00 OD; optical density (OD) at 405 nm, EIA reactivity of human serum sample 7 [2]: 0.00 OD; optical density (OD) at 405 nm, EIA reactivity of human serum sample 9 [2]: 0.00 OD; optical density (OD) at 405 nm, EIA reactivity of human serum sample 11 [2]: 0.00 OD; optical density (OD) at 405 nm, EIA reactivity of human serum sample 18 [2]: 0.00 OD; optical density (OD) at 405 nm, EIA reactivity of human serum sample 36 [2]: 0.00 OD; optical density (OD) at 405 nm, EIA reactivity of human serum sample 48 [2]: 0.00 OD; optical density (OD) at 405 nm, EIA reactivity of human serum sample 98 [2]: 0.00 OD; optical density (OD) at 405 nm, EIA reactivity of human serum sample 110 [2]: 0.00 OD; optical density (OD) at 405 nm, EIA reactivity of human serum sample 155 [2]: 0.00 OD; optical density (OD) at 405 nm, EIA reactivity of human serum sample 157 [2]: 0.00 OD
QKESLLFPPVKLLRRVP (Peptide Immunogen) [compound 69, overlapping synthetic peptide of TTV ORF1]	0.10	0.15	0.16	0.14	0.12	0.51	0.11	0.09	0.13	0.08	0.08	0.09	0.10	0.11	0.15	0.21	Reactive				
VLICGENTVSRNYATHS (Peptide Immunogen) [compound 10, overlapping synthetic peptide of TTV ORF1]	0.09	0.10	0.11	0.11	0.11	0.13	1.09	0.09	0.12	0.07	0.07	0.11	0.06	0.09	0.12	0.12	Reactive	0.09	0.11	0.10	optical density (OD) at 405 nm, EIA reactivity of human serum sample 4 [2]: 0.09 OD; optical density (OD) at 405 nm, EIA reactivity of human serum sample 5 [2]: 0.08 OD; optical density (OD) at 405 nm, EIA reactivity of human serum sample 6 [2]: 0.11 OD; optical density (OD) at 405 nm, EIA reactivity of human serum sample 7 [2]: 0.08 OD; optical density (OD) at 405 nm, EIA reactivity of human serum sample 9 [2]: 0.09 OD; optical density (OD) at 405 nm, EIA reactivity of human serum sample 11 [2]: 0.10 OD; optical density (OD) at 405 nm, EIA reactivity of human serum sample 18 [2]: 0.09 OD; optical density (OD) at 405 nm, EIA reactivity of human serum sample 36 [2]: 0.07 OD; optical density (OD) at 405 nm, EIA reactivity of human serum sample 48 [2]: 0.08 OD; optical density (OD) at 405 nm, EIA reactivity of human serum sample 98 [2]: 0.08 OD; optical density (OD) at 405 nm, EIA reactivity of human serum sample 110 [2]: 0.08 OD; optical density (OD) at 405 nm, EIA reactivity of human serum sample 155 [2]: 0.11 OD; optical density (OD) at 405 nm, EIA reactivity of human serum sample 157 [2]: 0.13 OD
